Assay results from patent US20240018133A1, “MODULATORS OF THE INTEGRATED STRESS PATHWAY” (Calico Life Sciences LLC, priority 2019, published 2024).

The molecules below were run on ATF4 luciferase reporter (human full-length ATF4 5'-UTR fused to firefly luciferase) in HEK293T cells (assay: ATF4-Luc assay (in vitro model of VWMD): HEK293T cells carrying ATF4 luciferase reporter, tunicamycin-treated). Conditions: Homo sapiens, HEK-293T, 1 μg/mL tunicamycin, 7 hours, One Glo luminescence.
Format: cell-based
Procedure, shortened: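 Compound at 200 nM and tunicamycin at 1 μg/mL were given together for 7 h to HEK293T cells stably transduced with an ATF4 5′-UTR-driven firefly luciferase reporter. Read-out by luminescence, reported as EC50.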

`O=C(NC12CC(NC(=O)[C@H]3C[C@@H](O)c4cc(Cl)ccc4O3)(C1)C2)c1cnc(C2CC2)o1` [Compound 383, N-(3-{[(2R,4R)-6-chloro-4-hydroxy-3,4-dihydro-2H-1-benzopyran-2-carbonyl]amino}bicyclo[1.1.1]pentan-1-yl)-2-cyclopropyl-1,3-oxazole-5-carboxamide] and `O=C(NC12CC(NC(=O)[C@H]3C[C@@H](O)c4cc(Cl)ccc4O3)(C1)C2)c1ccc(OC(F)(F)F)nc1` [Compound 377, N-(3-{[(2R,4R)-6-chloro-4-hydroxy-3,4-dihydro-2H-1-benzopyran-2-carbonyl]amino}bicyclo[1.1.1]pentan-1-yl)-6-(trifluoromethoxy)pyridine-3-carboxamide] fall in the same range of EC50: 50 to 250 nM for the first, 50 to 250 nM for the second.

`O=C(COc1ccc(F)c(F)c1)NC12CC(NC(=O)[C@H]3CC(=O)c4cc(Cl)ccc4O3)(C1)C2` [Compound 275, (2R)-6-chloro-N-{3-[2-(3,4-difluorophenoxy)acetamido]bicyclo[1.1.1]pentan-1-yl}-4-oxo-3,4-dihydro-2H-1-benzopyran-2-carboxamide] and `O=C(COc1ccc(Cl)c(F)c1)NC12CC(NC(=O)[C@H]3CC(=O)c4cc(Cl)ccc4O3)(C1)C2` [Compound 223, (2R)-6-chloro-N-{3-[2-(4-chloro-3-fluorophenoxy)acetamido]bicyclo[1.1.1]pentan-1-yl}-4-oxo-3,4-dihydro-2H-1-benzopyran-2-carboxamide] cannot be ordered by EC50: under 10 nM for the first, under 10 nM for the second.

First: O=C(COc1ccc(Cl)c(F)c1)NC12CC(NC(=O)[C@H]3C=Cc4cc(Cl)ccc4O3)(C1)C2 [Compound 307, (2R)-6-chloro-N-{3-[2-(4-chloro-3-fluorophenoxy)acetamido]bicyclo[1.1.1]pentan-1-yl}-2H-1-benzopyran-2-carboxamide]
Second: O=C(COc1ccc(Cl)c(F)c1)NC12CCC(NC(=O)C3CC(=O)c4cc(Cl)ccc4O3)(C1)C2 (centres unmarked) [Compound 310, 6-chloro-N-{4-[2-(4-chloro-3-fluorophenoxy)acetamido]bicyclo[2.1.1]hexan-1-yl}-4-oxo-3,4-dihydro-2H-1-benzopyran-2-carboxamide]
The EC50 of the first is lower: under 10 nM for the first, 10 to 50 nM for the second.

Compared with `O=C(COc1ccc(Cl)c(F)c1)NC12CC(NC(=O)C3CC(O)c4cc(F)c(Cl)cc4O3)(C1)C2` (centres unmarked) [Compound 246, 7-chloro-N-{3-[2-(4-chloro-3-fluorophenoxy)acetamido]bicyclo[1.1.1]pentan-1-yl}-6-fluoro-4-hydroxy-3,4-dihydro-2H-1-benzopyran-2-carboxamide], `COc1ccc2c(n1)[C@H](O)C[C@H](C(=O)NC13CC(NC(=O)COc4ccc(Cl)c(F)c4)(C1)C3)O2` (racemic) [Compound 334, rac-(2R,4R)—N-{3-[2-(4-chloro-3-fluorophenoxy)acetamido]bicyclo[1.1.1]pentan-1-yl}-4-hydroxy-6-methoxy-3,4-dihydro-2H-pyrano[3,2-b]pyridine-2-carboxamide] is higher in EC50: under 10 nM for the first, 50 to 250 nM for the second.

`O=C(NC12CCC(NC(=O)[C@H]3C[C@@H](O)c4cc(Cl)ccc4O3)(CC1)CC2)c1cnc(C(F)F)cn1` (racemic) [Compound 302, N-(4-{[rac-(2R,4R)-6-chloro-4-hydroxy-3,4-dihydro-2H-1-benzopyran-2-carbonyl]amino}bicyclo[2.2.2]octan-1-yl)-5-(difluoromethyl)pyrazine-2-carboxamide] and `O=C(COc1ccc(Cl)c(F)c1)NC12CC(NC(=O)[C@@H]3C[C@@H](NCC(F)(F)F)c4cc(Cl)ccc4O3)(C1)C2` [Compound 323, (2S,4R)-6-chloro-N-{3-[2-(4-chloro-3-fluorophenoxy)acetamido]bicyclo[1.1.1]pentan-1-yl}-4-[(2,2,2-trifluoroethyl)amino]-3,4-dihydro-2H-1-benzopyran-2-carboxamide] fall in the same range of EC50: 50 to 250 nM for the first, 50 to 250 nM for the second.

`O=C(COc1ccc(Cl)c(F)c1)NC12CC(NC(=O)C3C/C(=N\O)c4cc(F)ccc4O3)(C1)C2` (centres unmarked) [Compound 298, N-{3-[2-(4-chloro-3-fluorophenoxy)acetamido]bicyclo[1.1.1]pentan-1-yl}-6-fluoro-4-(hydroxyimino)-3,4-dihydro-2H-1-benzopyran-2-carboxamide] showed an EC50 of 10 to 50 nM.
